In the supplement of paper PMC11061612:

Key:
5637 (Bladder Carcinoma) = assay: Bliss excess, mean over the matrix (fraction); higher = more synergy
Summary of the method: (§1)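 Cell lines in DMEM/F12 or RPMI with 10% FBS were plated in 1536-well plates, held 24 hours at 37°C, 5% CO2, then given two-drug dose matrices for 72 hours (DMSO typically 0.2%). Viability was read by CellTiter-Glo 2.0 luminescence and scaled as inhibition from 0 (vehicle wells) to 1 (blank wells). Combination Emax is the second-highest inhibition in the matrix; Bliss excess is observed combination effect minus expected EA + EB − EA·EB, EA and EB being single-agent effects.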

A101D (Melanoma) = assay: as above
Summary of the method: as §1

[1] = tested on: CA46 (Burkitt's Lymphoma); assay: as above
Summary of the method: as §1

EB2 (Burkitt's Lymphoma) = assay: as above
Summary of the method: as §1

[2] = tested on: ESO26 (Esophageal Adenocarcinoma); assay: as above
Summary of the method: as §1

[3] = tested on: JHH-2 (Hepatocellular Carcinoma); assay: as above
Summary of the method: as §1

[4] = tested on: Jurkat (T-Lymphoblastic Leukemia); assay: as above
Summary of the method: as §1

[5] = tested on: KYSE-140 (Esophageal Squamous Cell Carcinoma); assay: as above
Summary of the method: as §1

NB13 (Neuroblastoma) [6] = assay: as above
Summary of the method: as §1

[7] = tested on: NCI-H1651 (Lung Adenocarcinoma); assay: as above
Summary of the method: as §1

[8] = tested on: NCI-H441 (Lung Adenocarcinoma); assay: as above
Summary of the method: as §1

PEO1 (Ovarian Carcinoma) = assay: as above
Summary of the method: as §1

[9] = tested on: SK-HEP-1 (Hepatocellular Carcinoma); assay: as above
Summary of the method: as §1

[10] = tested on: SW620 (Colorectal Carcinoma); assay: as above
Summary of the method: as §1

[11] = tested on: UACC-812 (Breast Carcinoma); assay: as above
Summary of the method: as §1

[12] = tested on: DMS-53 (Small Cell Lung Carcinoma); assay: combination Emax (second highest fraction inhibited in the dose matrix, 72 h); higher = more inhibition; extreme values may be limits of the assay
Summary of the method: as §1

[13] = tested on: DU-4475 (Breast Carcinoma); assay: as above
Summary of the method: as §1

[14] = tested on: HCC1428 (Breast Carcinoma); assay: as above
Summary of the method: as §1

[15] = tested on: JVM-2 (B-Cell Non-Hodgkin's Lymphoma); assay: as above
Summary of the method: as §1

NB13 (Neuroblastoma) [16] = assay: as above
Summary of the method: as §1
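For Bliss excess, mean over the matrix in this document: after 72 h of two-drug dosing.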

SMILES	Bliss excess (5637 (Bladder Carcinoma))	Bliss excess (A101D (Melanoma))	Bliss excess [1]	Bliss excess (EB2 (Burkitt's Lymphoma))	Bliss excess [2]	Bliss excess [3]	Bliss excess [4]	Bliss excess [5]	Bliss excess (NB13 (Neuroblastoma) [6])	Bliss excess [7]	Bliss excess [8]	Bliss excess (PEO1 (Ovarian Carcinoma))	Bliss excess [9]	Bliss excess [10]	Bliss excess [11]	combination Emax [12]	combination Emax [13]	combination Emax [14]	combination Emax [15]	combination Emax (NB13 (Neuroblastoma) [16])
CC1(C)CCC(CN2CCN(c3ccc(C(=O)NS(=O)(=O)c4ccc(NCC5CCOCC5)c([N+](=O)[O-])c4)c(Oc4cnc5[nH]ccc5c4)c3)CC2)=C(c2ccc(Cl)cc2)C1 [Venetoclax] + CN(C)CCCOc1ccc(-c2ccc3ncc4c(c3c2)n(C2CCOCC2)c(=O)n4C)cn1 [AZD0156] (first compound max 1 µM, 7x7, partner max 1 µM)	-0.0273	0.0088	-0.026	0.0106	-0.0063	-0.028	-0.0111	0.0177	0.021	-0.0174	-0.0733	-0.018	-0.057	-0.0142	-0.016	0.44	0.0995	0.161	0.34	0.468
CC1(C)CCC(CN2CCN(c3ccc(C(=O)NS(=O)(=O)c4ccc(NCC5CCOCC5)c([N+](=O)[O-])c4)c(Oc4cnc5[nH]ccc5c4)c3)CC2)=C(c2ccc(Cl)cc2)C1 [Venetoclax] + COc1cc(Nc2ncc3c(n2)-c2ccc(Cl)cc2C(c2c(F)cccc2OC)=NC3)ccc1C(=O)O [Alisertib] (first compound max 1 µM, 7x7, partner max 10 µM)	-0.0313	0.077	-0.017	0.13	-0.003	-0.0018	0.165	0.0471	0.0028	0.0211	-0.0511	0.0007	-0.0578	-0.0335	-0.0157	0.809	0.807	0.339	0.892	0.932
CC1(C)CCC(CN2CCN(c3ccc(C(=O)NS(=O)(=O)c4ccc(NCC5CCOCC5)c([N+](=O)[O-])c4)c(Oc4cnc5[nH]ccc5c4)c3)CC2)=C(c2ccc(Cl)cc2)C1 [Venetoclax] + C[C@@H]1COCCN1C2=NC(=NC(=C2)C3(CC3)[S@](=N)(=O)C)C4=C5C=CNC5=NC=C4 [AZD6738] (first compound max 1 µM, 7x7, partner max 10 µM)	-0.048	-0.0313	0.0093	-0.035	-0.0101	-0.019	0.0361	-0.0185	0.0633	-0.0123	-0.0483	-0.0038	-0.0342	-0.0365	0.0003	0.809	1	0.397	0.892	0.942
CC1(C)CCC(CN2CCN(c3ccc(C(=O)NS(=O)(=O)c4ccc(NCC5CCOCC5)c([N+](=O)[O-])c4)c(Oc4cnc5[nH]ccc5c4)c3)CC2)=C(c2ccc(Cl)cc2)C1 [Venetoclax] + C[C@@H](Nc1cc(F)cc(F)c1)c1cc(C(=O)N(C)C)cc2c(=O)cc(N3CCOCC3)oc12 [AZD8186] (first compound max 1 µM, 7x7, partner max 3 µM)	-0.0273	0.0305	0.0323	0.0231	-0.0277	0.0003	0.0084	-0.0149	-0.0171	-0.0212	-0.0304	-0.0427	-0.0299	-0.0505	-0.0319	0.137	0.262	0.147	0.661	0.253
CC1(C)CCC(CN2CCN(c3ccc(C(=O)NS(=O)(=O)c4ccc(NCC5CCOCC5)c([N+](=O)[O-])c4)c(Oc4cnc5[nH]ccc5c4)c3)CC2)=C(c2ccc(Cl)cc2)C1 [Venetoclax] + Cc1cc2ncnn2cc1Nc1ncc2c(n1)n(C1CCOCC1)c(=O)n2C [AZD7648] (first compound max 1 µM, 7x7, partner max 10 µM)	-0.0504	-0.0394	-0.0454	-0.0338	-0.0336	-0.069	0.0164	-0.0044	0.0559	-0.0342	-0.0437	-0.033	-0.0387	-0.0452	0.0286	0.428	0.23	0.139	0.528	0.368
CC1(C)CCC(CN2CCN(c3ccc(C(=O)NS(=O)(=O)c4ccc(NCC5CCOCC5)c([N+](=O)[O-])c4)c(Oc4cnc5[nH]ccc5c4)c3)CC2)=C(c2ccc(Cl)cc2)C1 [Venetoclax] + Cn1cnc2c(F)c(Nc3ccc(Br)cc3Cl)c(C(=O)NOCCO)cc21 [Selumetinib] (first compound max 1 µM, 7x7, partner max 3 µM)	-0.0194	-0.0254	-0.068	0.0012	-0.0133	0.016	0.0054	-0.0042	-0.0837	-0.0367	-0.043	-0.0452	-0.0378	-0.0414	-0.0297	0.367	1	0.132	0.392	0.183
